Drawing on EP4786454A1, “HETEROARYL DERIVATIVE AND USE THEREOF” (priority 2023, dated 2025), this text covers EC50 and fraction unbound for four compounds.

One data set has as its target T1, hKCNQ2/3 (Homo sapiens, UniProt O43525+O43526).
T1 construct: expressed in transfected cells; host or cells: CHO
Description: hKCNQ2/3 thallium flux assay (FLIPR). The following applies: agonistic effect, CHO cell line stably expressing hKCNQ2/3. It is filed as cell-based. From the text: The present disclosure also provides the following assay methods: • Assay method 1: hKCNQ2/3 thallium flux assay • Purpose of the assay: To determine the in vitro concentration-response relationship of the compounds in a CHO cell line stably expressing hKCNQ2/3 using FLIPR thallium flux assay.
CHO cells stably transfected with hKCNQ2/3.
The cell line was passaged three times a week at a split ratio of 1:2 to 1:3. When the cells grew to a confluence degree of greater than 80% in a T-75 cell flask, they were digested with 0.25% trypsin-EDTA solution for about 1 minute, and then the cells were transferred from the cell flask for passage. According to the split ratio, the cells were transferred to another T-75 cell flask containing complete cell growth culture medium. Note: In order to maintain the logarithmic growth of cells, the cell growth should be maintained in a subconfluent monolayer state. The cells were passaged every 2 to 3 days according to the cell doubling time.
• (1) Day 1, cell preparation: The cells were digested according to the above method, and the cell density and viability were determined using Cell Countess. The volume of the single-cell suspension was adjusted with complete cell growth culture medium. Then, the hKCNQ2/3_CHO cells were seeded at a density of approximately 20,000 cells/well (30 µL/well) into a PDL-precoated 384-well plate. Then, the plate was incubated at 37 °C with 5% CO2 humidified air in an incubator overnight. • (2) Day 2, compound preparation: A test compound was diluted to a storage concentration with dimethyl sulfoxide (DMSO), and stored in a freezer at -20 °C. A compound addition program was set up on the ECHO liquid workstation, and the compound was added to the plate using the ECHO liquid workstation. A positive control was prepared using Retigabine (RTG) with a maximum concentration of 100 µM, which was subjected to a 3-fold dilution, resulting in a total of 9 doses constituting the plate map required for plating. Prepare the plate using a stimulation buffer containing 5 mM K^+ and 1 mM Tl^+. Note: 1) K2SO4 and Tl2SO4 were prepared in a 1× chloride-free buffer. When different voltage-gated potassium channels were involved, the concentrations of Tl^+ and K^+ were needed to be adjusted. The concentration of Tl^+ was approximately 0.5 mM to 5 mM, and the concentration of K^+ was approximately 5 mM to 30 mM. 2) Each 1 mM solution of K2SO4 and Tl2SO4 contained 2 mM K^+ and Tl^+. The final concentration should be calculated based on the ion concentrations. 3) TlCl was easily precipitated and a chloride-free buffer was required. • (3) Day 2, assay testing: When the cells reached the confluence degree, the cell analysis plate was taken out from the incubator. The assay buffer was prepared and the Tl^+ dye (Molecular Devices # R8222) was diluted. The culture medium was discarded using the liquid workstation Bravo and 25 µL of Tl^+ dye was added to each well. The plate was incubated for 1 hour, and then the cell analysis plate, composite plate, and FLIPR tip were placed in FLIPR^TETRA (Molecular Devices, USA) for FLIPR assay. The tip was set up, and then the baseline was read for 60 seconds. Then, 12.5 µL from the composite plate (3×) was added to the cell analysis plate, and the data were recorded for at least 5 minutes at the same time. • (4) Data processing: The maximum signal was generated with FLIPR software. Excel (2013) and Prism 6.01 were used for data analysis. The data quality control was performed with S/B > 2.00 and Z-factor > 0.50. IC50 or EC50 was defined as the midline between the lowest and the highest plateaus, and it was calculated using a four-parameter logistic model with Prism 6.01.
Purpose of the assay: To determine the in vitro concentration-response relationship of the compounds in a CHO cell line stably expressing hKCNQ2/3 using FLIPR thallium flux assay. […]

Data set [1] in a line: Plasma protein binding rate, equilibrium dialysis (human plasma). Type of data set: in vitro ADME. The following applies: dialysis 4 hours at 37 °C, read-out: Unbound PPB%. As for the experimental part:
The protein binding rates of the compounds in the plasma of CD-1 mice, Sprague-Dawley rats, beagle dogs, cynomolgus monkeys, and human were determined using equilibrium dialysis method.
Commercially available plasma, dual-layer dialysis membrane, and equilibrium dialysis device.
The dual-layer dialysis membrane was soaked in ultrapure water for about 1 hour, removed and then divided into two parts. It was then soaked in an ethanol:water (20:80, v:v) solution for 20 minutes or placed at 2 to 8 °C, and it was valid for 1 month. Before starting the assay, the dialysis membrane was rinsed twice with ultrapure water and then soaked in ultrapure water for another 20 minutes for later use.
On the day of assay, the frozen plasma of CD-1 mice, Sprague-Dawley rats, beagle dogs, cynomolgus monkeys, and human was thawed in running cold tap water. After the plasma was completely thawed, the plasma was centrifuged at 3220×g for 5 minutes, and the suspended substances and precipitates in it were removed. The pH of the plasma was determined. The plasma with a pH in the range of 7.4 ± 0.1 was directly used, or the plasma with a pH in the range of 7.4 ± 0.1 after an adjustment with 1% phosphoric acid or 1M sodium hydroxide was used.
Preparation process of plasma samples: 597 µL of blank plasma from each of the above five species was taken, respectively. 3 µL of a compound or warfarin working solution was added, and the mixture was mixed thoroughly to give a plasma sample with a compound concentration of 2 µM and a warfarin concentration of 2 µM (n=1). The concentration of the organic phase DMSO was 0.5%. The sample was thoroughly mixed before proceeding to the next step.
Preparation process of T0 samples: 50 µL of a plasma sample containing the compound and warfarin was transferred to a sample receiving plate (n=3), and 50 µL of blank PBS was immediately added. Then, 500 µL of stop solution was added to the T0 sample of the compound and warfarin, and the mixture was stored at 2 to 8 °C, waiting to be processed later together with other dialysis-processed samples.
Dialysis process of plasma samples: 100 µL of a compound (2 µM) and warfarin (2 µM) plasma sample was added to the donor of each dialysis well (n=3), and 100 µL of blank PBS was added to the corresponding receiver of the dialysis well. The dialysis plate was placed in a 5% CO2 incubator, and incubated at 37 °C with shaking at approximately 100 rpm for 4 hours.
After the dialysis was completed, 50 µL of dialysis-processed PBS sample and dialysis-processed plasma sample (n=3) were transferred to a new 96-well plate (sample receiving plate). The corresponding volume of the corresponding blank plasma or PBS was added to the sample to make the final volume of each sample well 100 µL, with a plasma to PBS volume ratio of 1:1. All the samples were analyzed by LC-MS/MS after protein precipitation.
The formulas for calculating the unbound fraction (%Unbound), bound fraction (%Bound) and recovery fraction (%Recovery) of a compound are as follows: %Unbound = 100 ×F / T %Bound = 100 - %Unbound %Recovery = 100 ×(F + T)/ T0 wherein F is the concentration of the compound at the receiver of dialysis; T is the concentration of the compound at the supply end of dialysis; and T0 is the concentration of the compound in the plasma at time zero.

T1 sequence (O43525 whole entry): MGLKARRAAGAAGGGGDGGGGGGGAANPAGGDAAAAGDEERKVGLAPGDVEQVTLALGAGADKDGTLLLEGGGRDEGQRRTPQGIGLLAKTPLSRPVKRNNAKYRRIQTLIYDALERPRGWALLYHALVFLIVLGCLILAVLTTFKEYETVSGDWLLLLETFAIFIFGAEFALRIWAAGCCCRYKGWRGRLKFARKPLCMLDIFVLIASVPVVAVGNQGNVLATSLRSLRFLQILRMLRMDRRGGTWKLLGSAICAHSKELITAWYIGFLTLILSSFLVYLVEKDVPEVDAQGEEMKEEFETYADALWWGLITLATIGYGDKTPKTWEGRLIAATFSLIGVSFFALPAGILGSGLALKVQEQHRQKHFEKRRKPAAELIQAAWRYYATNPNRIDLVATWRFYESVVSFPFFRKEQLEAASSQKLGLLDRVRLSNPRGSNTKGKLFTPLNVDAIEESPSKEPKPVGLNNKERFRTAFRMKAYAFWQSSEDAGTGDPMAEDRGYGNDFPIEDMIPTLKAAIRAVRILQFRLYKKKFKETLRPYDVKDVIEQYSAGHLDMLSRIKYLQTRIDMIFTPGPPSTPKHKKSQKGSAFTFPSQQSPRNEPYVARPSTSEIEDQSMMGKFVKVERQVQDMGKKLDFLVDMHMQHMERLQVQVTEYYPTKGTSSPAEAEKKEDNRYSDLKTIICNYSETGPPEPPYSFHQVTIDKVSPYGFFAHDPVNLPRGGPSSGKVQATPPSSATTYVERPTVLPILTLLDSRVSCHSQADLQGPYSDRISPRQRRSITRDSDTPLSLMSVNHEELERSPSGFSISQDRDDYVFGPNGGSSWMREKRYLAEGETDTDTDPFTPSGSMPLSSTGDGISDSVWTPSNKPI
T1 sequence (O43526 whole entry): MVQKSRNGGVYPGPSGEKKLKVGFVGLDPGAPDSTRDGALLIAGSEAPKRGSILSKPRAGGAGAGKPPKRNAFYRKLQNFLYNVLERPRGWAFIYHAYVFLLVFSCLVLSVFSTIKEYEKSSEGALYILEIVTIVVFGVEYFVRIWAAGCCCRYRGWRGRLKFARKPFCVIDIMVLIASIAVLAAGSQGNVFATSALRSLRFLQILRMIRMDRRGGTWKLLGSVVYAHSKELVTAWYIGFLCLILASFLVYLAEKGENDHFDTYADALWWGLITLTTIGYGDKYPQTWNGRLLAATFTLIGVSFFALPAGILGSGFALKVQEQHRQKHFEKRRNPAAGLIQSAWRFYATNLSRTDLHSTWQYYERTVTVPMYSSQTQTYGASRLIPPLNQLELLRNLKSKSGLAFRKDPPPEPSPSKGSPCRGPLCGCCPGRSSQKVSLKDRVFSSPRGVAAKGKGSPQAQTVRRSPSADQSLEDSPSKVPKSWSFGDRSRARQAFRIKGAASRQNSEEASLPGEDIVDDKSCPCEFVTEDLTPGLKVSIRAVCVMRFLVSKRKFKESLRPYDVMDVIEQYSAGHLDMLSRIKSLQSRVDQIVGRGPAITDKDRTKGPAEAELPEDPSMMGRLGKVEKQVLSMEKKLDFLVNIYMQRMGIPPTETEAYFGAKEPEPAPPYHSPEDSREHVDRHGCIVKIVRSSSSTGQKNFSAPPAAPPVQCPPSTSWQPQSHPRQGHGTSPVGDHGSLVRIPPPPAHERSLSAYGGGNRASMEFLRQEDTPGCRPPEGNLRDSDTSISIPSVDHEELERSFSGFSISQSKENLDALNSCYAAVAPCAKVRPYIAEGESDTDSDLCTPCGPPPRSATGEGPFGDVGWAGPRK

`CC(C)(C)CC(=O)Nc1nc2c(F)cc(C#N)cn2c1C12CC(C1)C2` [Compound 5]: the midpoint of the response on hKCNQ2/3, the EC50, lay at 0.2 µM. In data set [1], the fraction unbound at 4 h, 2 µM was 0.231.
`CC(C)(C)CC(=O)Nc1nc2c(F)cc(C#N)cn2c1C1=CCCC1` [Compound 3] had an EC50 on hKCNQ2/3 of 0.48 µM. Further, the fraction unbound at 4 h, 2 µM in data set [1] worked out at 0.109.
Turning to `CC(C)(C)CC(=O)Nc1nc2c(F)cc(C#N)cn2c1-c1ccc(OC(F)(F)F)cc1` [Compound 1], in data set [1], the fraction unbound at 4 h, 2 µM came to 0.051.
In turn, `CC(C)(C)CC(=O)Nc1nc2c(C(F)(F)F)cc(C#N)cn2c1C12CC(C1)C2` [Compound 6] came in with a 50% effective concentration (EC50) at hKCNQ2/3 of 0.71 µM.
